Key:
Conditions in all cases: 72 h
BV-173 [1] = test system: BV-173
Procedure, shortened: (§1)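 Fifteen myeloid leukaemia cell lines were seeded in RPMI 1640 at a density titrated to the linear growth range. Each line went into 384-well plates with compounds acoustically pre-printed at five tenfold doses from 1 to 10,000 nM, in duplicate, and was incubated for 72 h at 37 °C with 5% CO2. Luminescent ATP viability was normalised to vehicle and to a positive control at 10 µM. The IC50 came from four-parameter log-logistic dose–response fits.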

KG-1 [2] = test system: KG-1
Procedure, shortened: as §1

HL-60 [3] = test system: HL-60
Procedure, shortened: as §1

KCL-22 [4] = test system: KCL-22
Procedure, shortened: as §1

Mono-Mac-6 [5] = test system: Mono-Mac-6
Procedure, shortened: as §1

LAMA-84 [6] = test system: LAMA-84
Procedure, shortened: as §1

MOLM-13 [7] = test system: MOLM-13
Procedure, shortened: as §1

KU-812 [8] = test system: KU-812
Procedure, shortened: as §1

NOMO-1 [9] = test system: NOMO-1
Procedure, shortened: as §1

K-562 [10] = test system: K-562
Procedure, shortened: as §1

THP-1 [11] = test system: THP-1
Procedure, shortened: as §1

HEL [12] = test system: HEL
Procedure, shortened: as §1

MV4-11 [13] = test system: MV4-11
Procedure, shortened: as §1

SHI-1 [14] = test system: SHI-1
Procedure, shortened: as §1

ML-2 [15] = test system: ML-2
Procedure, shortened: as §1

BV-173 [16] = assay: cell viability (% survival relative to DMSO control, bortezomib = 0%); higher = less cytotoxic
Procedure, shortened: (§2)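 Fifteen myeloid leukaemia cell lines (10 AML, 5 CML) were seeded at a density titrated to the linear growth range. They went into 384-well plates with compounds pre-printed at 1, 10, 100, 1000 or 10000 nM in duplicate. After 72 h at 37 °C with 5% CO2, viability was read by CellTiter-Glo luminescence. Values are percent survival, with vehicle set to 100% and a 10 µM positive control to 0%, averaged over the duplicates.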

KG-1 [17] = assay: as above
Procedure, shortened: as §2

HL-60 [18] = assay: as above
Procedure, shortened: as §2

KCL-22 [19] = assay: as above
Procedure, shortened: as §2

Mono-Mac-6 [20] = assay: as above
Procedure, shortened: as §2

LAMA-84 [21] = assay: as above
Procedure, shortened: as §2

MOLM-13 [22] = assay: as above
Procedure, shortened: as §2

KU-812 [23] = assay: as above
Procedure, shortened: as §2

NOMO-1 [24] = assay: as above
Procedure, shortened: as §2

K-562 [25] = assay: as above
Procedure, shortened: as §2

THP-1 [26] = assay: as above
Procedure, shortened: as §2

HEL [27] = assay: as above
Procedure, shortened: as §2

MV4-11 [28] = assay: as above
Procedure, shortened: as §2

SHI-1 [29] = assay: as above
Procedure, shortened: as §2

ML-2 [30] = assay: as above
Procedure, shortened: as §2

CCn1c(=Cc2cccc[n+]2CC)sc(=C2Sc3ccccc3N2C)c1=O [MKT 077]
Conditions | IC50 (cell viability) [µM]
BV-173 [1] | > 10
HEL [12] | > 10
HL-60 [3] | 4.45
K-562 [10] | 3.59
KCL-22 [4] | > 10
KG-1 [2] | > 10
KU-812 [8] | > 10
LAMA-84 [6] | > 10
ML-2 [15] | > 10
MOLM-13 [7] | 3.76
MV4-11 [13] | 3.37
Mono-Mac-6 [5] | > 10
NOMO-1 [9] | > 10
SHI-1 [14] | 3.28
THP-1 [11] | > 10

cell viability [%]
Conditions | 1 nM | 10 nM | 100 nM | 1000 nM | 10000 nM
BV-173 [16] | 107 | 108 | 102 | 95.2 | 83.4
HEL [27] | 117 | 87 | 95.7 | 105 | 125
HL-60 [18] | 101 | 84.5 | 101 | 136 | 2.97
K-562 [25] | 109 | 88.1 | 103 | 108 | 1.35
KCL-22 [19] | 106 | 98.5 | 90 | 103 | 107
KG-1 [17] | 99 | 103 | 138 | 102 | 79.3
KU-812 [23] | 101 | 103 | 107 | 98.3 | 61.8
LAMA-84 [21] | 105 | 94.7 | 114 | 104 | 71.6
ML-2 [30] | 91.7 | 98 | 106 | 102 | 101
MOLM-13 [22] | 115 | 108 | 119 | 115 | 0.148
MV4-11 [28] | 113 | 99.9 | 109 | 104 | 0.22
Mono-Mac-6 [20] | 100 | 110 | 112 | 102 | 87.8
NOMO-1 [24] | 98 | 96.2 | 98.1 | 94 | 95.2
SHI-1 [29] | 95.9 | 98.7 | 97.3 | 98.8 | 2.85
THP-1 [26] | 99.6 | 105 | 108 | 98.2 | 86.1

CCc1c(C(=O)C(N)=O)c2c(OCC(=O)O)cccc2n1Cc1ccccc1 [Varespladib]
Conditions | IC50 (cell viability) [µM]
BV-173 [1] | > 10
HEL [12] | > 10
HL-60 [3] | > 10
K-562 [10] | > 10
KCL-22 [4] | > 10
KG-1 [2] | > 10
KU-812 [8] | > 10
LAMA-84 [6] | > 10
ML-2 [15] | > 10
MOLM-13 [7] | > 10
MV4-11 [13] | > 10
Mono-Mac-6 [5] | > 10
NOMO-1 [9] | > 10
SHI-1 [14] | > 10
THP-1 [11] | > 10

cell viability [%]
Conditions | 1 nM | 10 nM | 100 nM | 1000 nM | 10000 nM
BV-173 [16] | 90.6 | 104 | 85.4 | 99.3 | 88.7
HEL [27] | 94.8 | 111 | 99.2 | 109 | 87.6
HL-60 [18] | 98.8 | 101 | 92.8 | 96.2 | 93.2
K-562 [25] | 98.5 | 97.5 | 110 | 92.4 | 99.9
KCL-22 [19] | 91.2 | 107 | 105 | 102 | 96.5
KG-1 [17] | 99.5 | 96.9 | 99.4 | 95.9 | 94
KU-812 [23] | 96.1 | 97.7 | 98.5 | 97.6 | 86.4
LAMA-84 [21] | 95.6 | 100 | 103 | 101 | 81.3
ML-2 [30] | 105 | 105 | 109 | 104 | 89.7
MOLM-13 [22] | 80.7 | 95.3 | 85.8 | 101 | 118
MV4-11 [28] | 88.4 | 109 | 101 | 88.3 | 98.5
Mono-Mac-6 [20] | 99.1 | 101 | 93.7 | 100 | 89
NOMO-1 [24] | 102 | 91.6 | 101 | 115 | 95.2
SHI-1 [29] | 106 | 99 | 106 | 92.9 | 93.4
THP-1 [26] | 103 | 105 | 100 | 97.4 | 96.9
